Reference: US20230116972A1, “CD38 MODULATORS AND METHODS OF USE THEREOF” (Cytokinetics, Inc., priority 2021, published 2023)
Like-named read-outs stand apart in the source and are kept apart here.

How the values were obtained:
mouse CD38 = molecular target: T1, mouse CD38 (Mus musculus, UniProt P56528); experiment: mouse recombinant CD38 enzyme assay (hydrolysis of NAD+); format: biochemical; conditions: read-out: mCD38 BioChem IC50
T1 sequence (P56528 1-304): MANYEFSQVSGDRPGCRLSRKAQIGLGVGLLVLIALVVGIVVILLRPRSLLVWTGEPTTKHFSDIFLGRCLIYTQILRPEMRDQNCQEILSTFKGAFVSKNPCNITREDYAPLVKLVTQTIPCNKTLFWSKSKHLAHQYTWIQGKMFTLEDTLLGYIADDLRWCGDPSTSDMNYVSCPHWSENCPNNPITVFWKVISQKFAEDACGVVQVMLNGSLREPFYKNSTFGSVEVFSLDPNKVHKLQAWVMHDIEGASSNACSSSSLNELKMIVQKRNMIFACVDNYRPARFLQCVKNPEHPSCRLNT
How it was run: (§1)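 Recombinant human or mouse CD38 hydrolyzing NAD+ in a cell-free buffered system. Dose-responses were run for 60 min at ambient temperature. Remaining NAD+ was converted to NADH by alcohol dehydrogenase, which drove diaphorase reduction of resazurin to resorufin, read at 540/590 nm.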

CYP3A4 = molecular target: T2, CYP3A4 (Homo sapiens, UniProt P08684); experiment: direct inhibition of CYP450 in human liver microsomes (midazolam and testosterone probes); format: in vitro ADME
T2 construct: from tissue; host or cells: human liver microsomes (pooled in the time-dependent assay)
Description: (§2) Direct inhibition: […] A Perspective of the Pharmaceutical Research and Manufacturers of America”, Drug Metabolism and Disposition, 37 (7): 1355, 2009). For 3A4, the % activity was measured using both midazolam and testosterone as probes. Each compound at 3, 10, and 50 μM was incubated with HLM, NADPH and CYP isoenzyme specific probe substrates at 37° C. Inhibition of the probe substrate metabolism was quantified using LC/MS/MS. […] Known chemical inhibitors specific for the individual CYP isoenzymes were evaluated in parallel as positive controls and these compounds produced CYP inhibition consistent with published results (Walsky & Obach RS. “Validated assays for human cytochrome P450 activities”. Drug Metab Dispos. 32(6):647-60, 2004). Note that, in Tables 6 and 7, the “Compound No” corresponds to the compound numbers in Table 1.

human CD38 = molecular target: T3, human CD38 (Homo sapiens, UniProt P28907); experiment: human recombinant CD38 enzyme assay (hydrolysis of NAD+); format: biochemical; conditions: human recombinant CD38, 0.4 nM enzyme, 62.5 μM NAD+; read-out: hCD38 BioChem IC50
T3 sequence (P28907 1-300): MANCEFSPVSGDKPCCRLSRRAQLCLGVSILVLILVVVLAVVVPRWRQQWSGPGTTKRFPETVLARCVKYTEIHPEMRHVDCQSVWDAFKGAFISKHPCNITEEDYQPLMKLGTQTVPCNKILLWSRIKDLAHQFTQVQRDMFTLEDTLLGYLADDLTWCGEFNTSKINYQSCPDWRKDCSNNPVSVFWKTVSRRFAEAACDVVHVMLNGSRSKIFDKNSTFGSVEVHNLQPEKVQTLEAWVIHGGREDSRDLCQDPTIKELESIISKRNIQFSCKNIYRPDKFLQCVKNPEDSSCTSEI
How it was run: as §1

CYP2D6 [1] = molecular target: T4, CYP2D6 (Homo sapiens, UniProt P10635); experiment: direct inhibition of CYP450 in human liver microsomes; format: in vitro ADME; conditions: for activity at 3 µM / activity at 10 µM / activity at 50 µM: % of non-inhibited control, read-out: CYP2D6 T0 % activity; for IC50: estimated from 3, 10, 50 uM, read-out: CYP2D6 T0 estimated IC50
T4 construct: from tissue; host or cells: human liver microsomes (pooled in the time-dependent assay)
Description: as §2

CYP2C19 = molecular target: T5, CYP2C19 (Homo sapiens, UniProt P33261); experiment: time dependent inhibition of CYP450 in pooled human microsomes; format: in vitro ADME
T5 construct: from tissue; host or cells: human liver microsomes (pooled in the time-dependent assay)
Description: (§3) Time dependent inhibition: An assessment of the time-dependent Inhibitory potential of test compounds against the principal human cytochrome P450 isozymes was carried out using standard methods (Grimm et al, “The Conduct of in Vitro Studies to Address Time-Dependent Inhibition of Drug-Metabolizing Enzymes: A Perspective of the Pharmaceutical Research and Manufacturers of America”, Drug Metabolism and Disposition, 37 (7): 1355, 2009). […] Each compound was pre-incubated at 37° C. plus and minus NADPH for 30 min, and with 0 min pre-incubation for assessment of potential time dependent inhibition. LC-MS/MS was used to quantify metabolite formation. […] Note that, in Tables 8 and 9, the “Compound No” corresponds to the compound numbers in Table 1.

CYP2D6 [2] = molecular target: T4, CYP2D6; experiment: as above; format: in vitro ADME
Description: as §3

[3] = midazolam probe, read-out: CYP3A4-M T0 % activity
[4] = testosterone probe, read-out: CYP3A4-T T0 % activity
[5] = midazolam probe, read-out: CYP3A4-M T0 estimated IC50
[6] = testosterone probe, read-out: CYP3A4-T T0 estimated IC50
[7] = between 30 min pre-incubation plus NADPH and 0 min

T5 sequence (P33261 whole entry): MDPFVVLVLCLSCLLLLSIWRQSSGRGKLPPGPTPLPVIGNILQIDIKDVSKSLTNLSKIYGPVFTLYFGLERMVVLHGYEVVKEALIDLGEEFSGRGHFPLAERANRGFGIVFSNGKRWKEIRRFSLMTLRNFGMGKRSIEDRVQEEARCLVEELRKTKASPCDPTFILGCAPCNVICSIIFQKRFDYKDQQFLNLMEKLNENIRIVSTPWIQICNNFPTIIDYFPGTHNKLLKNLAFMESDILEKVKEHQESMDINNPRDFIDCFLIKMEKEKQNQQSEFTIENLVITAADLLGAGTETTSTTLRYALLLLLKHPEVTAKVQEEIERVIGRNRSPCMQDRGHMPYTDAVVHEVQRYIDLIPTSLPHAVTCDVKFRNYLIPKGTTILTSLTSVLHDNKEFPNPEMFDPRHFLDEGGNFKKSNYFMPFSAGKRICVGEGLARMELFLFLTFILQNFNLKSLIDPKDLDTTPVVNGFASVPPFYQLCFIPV
T4 sequence (P10635 whole entry): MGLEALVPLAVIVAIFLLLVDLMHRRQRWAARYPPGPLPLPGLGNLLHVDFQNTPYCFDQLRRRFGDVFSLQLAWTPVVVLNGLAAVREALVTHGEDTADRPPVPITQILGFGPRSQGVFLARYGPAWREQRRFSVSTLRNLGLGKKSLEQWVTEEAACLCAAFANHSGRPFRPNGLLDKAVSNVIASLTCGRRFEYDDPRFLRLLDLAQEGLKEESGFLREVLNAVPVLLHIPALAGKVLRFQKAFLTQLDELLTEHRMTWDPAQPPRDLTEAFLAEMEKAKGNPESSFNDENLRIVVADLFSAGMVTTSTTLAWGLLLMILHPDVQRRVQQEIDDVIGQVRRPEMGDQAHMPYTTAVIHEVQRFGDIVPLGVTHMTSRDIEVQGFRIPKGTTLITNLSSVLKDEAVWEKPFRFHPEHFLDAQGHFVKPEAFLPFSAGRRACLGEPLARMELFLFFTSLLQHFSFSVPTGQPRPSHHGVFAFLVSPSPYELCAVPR
T2 sequence (P08684 whole entry): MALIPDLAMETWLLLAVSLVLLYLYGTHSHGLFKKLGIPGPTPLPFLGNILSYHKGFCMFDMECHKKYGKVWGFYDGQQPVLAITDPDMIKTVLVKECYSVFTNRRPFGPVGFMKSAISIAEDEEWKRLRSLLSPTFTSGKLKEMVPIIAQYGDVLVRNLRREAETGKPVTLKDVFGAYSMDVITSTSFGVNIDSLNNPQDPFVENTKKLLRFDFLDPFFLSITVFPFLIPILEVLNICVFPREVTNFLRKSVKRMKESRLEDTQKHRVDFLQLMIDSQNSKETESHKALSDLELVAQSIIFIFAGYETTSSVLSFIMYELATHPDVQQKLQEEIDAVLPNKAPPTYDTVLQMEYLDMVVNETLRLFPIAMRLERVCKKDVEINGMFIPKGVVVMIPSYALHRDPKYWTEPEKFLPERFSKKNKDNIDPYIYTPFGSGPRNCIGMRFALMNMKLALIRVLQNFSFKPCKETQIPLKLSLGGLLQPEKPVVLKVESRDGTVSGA

With CC(C)(O)c1ccc(NC(=O)c2nccc(-n3ccnc3)n2)cn1 [Compound 249, N-(6-(2-hydroxypropan-2-yl)pyridin-3-yl)-4-(1H-imidazol-1-yl)pyrimidine-2-carboxamide] the IC50 (mouse CD38) was 45.2 nM, the activity at 3 µM (CYP3A4; [3]) was 108% and the activity at 3 µM (CYP3A4; [4]) was 99%. The activity at 10 µM (CYP3A4; [3]) was 103%, the activity at 10 µM (CYP3A4; [4]) was 100% and the activity at 50 µM (CYP3A4; [3]) was 100%. For the same compound, the activity at 50 µM (CYP3A4; [4]) was 92%, the IC50 (CYP3A4; [5]) was over 50 µM and the IC50 (CYP3A4; [6]) was over 50 µM. The IC50 (human CD38) was 11.9 nM, the activity at 3 µM (CYP2D6 [1]) was 104% and the activity at 10 µM (CYP2D6 [1]) was 103%. For the same compound, the activity at 50 µM (CYP2D6 [1]) was 87% and the IC50 (CYP2D6 [1]) was over 50 µM.

Cn1cncc1-c1ccnc(C(=O)N[C@H]2CC[C@H](O)CC2)n1 [Compound 256, N-((1r,4r)-4-hydroxycyclohexyl)-4-(1-methyl-1H-imidazol-5-yl)pyrimidine-2-carboxamide] showed an IC50 (mouse CD38) of 22.5 nM, an activity at 3 µM (CYP3A4; [3]) of 88% and an activity at 3 µM (CYP3A4; [4]) of 96%. The activity at 10 µM (CYP3A4; [3]) was 97%, the activity at 10 µM (CYP3A4; [4]) was 99% and the activity at 50 µM (CYP3A4; [3]) was 82%. The activity at 50 µM (CYP3A4; [4]) was 95%, the IC50 (CYP3A4; [5]) was over 50 µM and the IC50 (CYP3A4; [6]) was over 50 µM. The IC50 (human CD38) was 68.4 nM, the activity at 3 µM (CYP2D6 [1]) was 89% and the activity at 10 µM (CYP2D6 [1]) was 87%. For the same compound, the activity at 50 µM (CYP2D6 [1]) was 56% and the IC50 (CYP2D6 [1]) was over 50 µM.

For Cn1cncc1-c1ccnc(C(=O)Nc2ccc(C(C)(C)O)nc2)n1 [Compound 250, N-(6-(2-hydroxypropan-2-yl)pyridin-3-yl)-4-(1-methyl-1H-imidazol-5-yl)pyrimidine-2-carboxamide], the IC50 (mouse CD38) was 32 nM, the activity at 3 µM (CYP3A4; [3]) was 96% and the activity at 3 µM (CYP3A4; [4]) was 104%. For the same compound, the activity at 10 µM (CYP3A4; [3]) was 89%, the activity at 10 µM (CYP3A4; [4]) was 106% and the activity at 50 µM (CYP3A4; [3]) was 73%. It also gave an activity at 50 µM (CYP3A4; [4]) of 85%, an IC50 (CYP3A4; [5]) of over 50 µM and an IC50 (CYP3A4; [6]) of over 50 µM. It also gave an IC50 (human CD38) of 14.1 nM, an activity at 3 µM (CYP2D6 [1]) of 103% and an activity at 10 µM (CYP2D6 [1]) of 86%. For the same compound, the activity at 50 µM (CYP2D6 [1]) was 47% and the IC50 (CYP2D6 [1]) was under 50 µM.

For CO[C@H]1CC[C@H](NC(=O)c2cc(C3CCC(F)(F)CC3)nc(-c3cncn3C)n2)CC1 [Compound 289, 6-(4,4-difluorocyclohexyl)-N-((1r,4r)-4-methoxycyclohexyl)-2-(1-methyl-1H-imidazol-5-yl)pyrimidine-4-carboxamide], the IC50 (mouse CD38) was 1 nM, the activity at 3 µM (CYP3A4; [3]) was 147% and the activity at 3 µM (CYP3A4; [4]) was 100%. For the same compound, the activity at 10 µM (CYP3A4; [3]) was 148%, the activity at 10 µM (CYP3A4; [4]) was 97% and the activity at 50 µM (CYP3A4; [3]) was 96%. The activity at 50 µM (CYP3A4; [4]) was 72%, the IC50 (CYP3A4; [5]) was over 50 µM and the IC50 (CYP3A4; [6]) was over 50 µM. It also gave an IC50 (human CD38) of 7 nM, an activity at 3 µM (CYP2D6 [1]) of 98% and an activity at 10 µM (CYP2D6 [1]) of 98%. The activity at 50 µM (CYP2D6 [1]) was 64% and the IC50 (CYP2D6 [1]) was over 50 µM.

Compound CO[C@H]1CC[C@H](NC(=O)c2cc(C3(C)COC3)nc(-c3cncn3C)n2)CC1 [Compound 295, N-((1r,4r)-4-methoxycyclohexyl)-2-(1-methyl-1H-imidazol-5-yl)-6-(3-methyloxetan-3-yl)pyrimidine-4-carboxamide] has an IC50 (mouse CD38) of 3.6 nM, an activity at 3 µM (CYP3A4; [3]) of 92% and an activity at 3 µM (CYP3A4; [4]) of 103%. For the same compound, the activity at 10 µM (CYP3A4; [3]) was 93%, the activity at 10 µM (CYP3A4; [4]) was 106% and the activity at 50 µM (CYP3A4; [3]) was 101%. For the same compound, the activity at 50 µM (CYP3A4; [4]) was 86%, the IC50 (CYP3A4; [5]) was over 50 µM and the IC50 (CYP3A4; [6]) was over 50 µM. For the same compound, the IC50 (human CD38) was 18.5 nM, the activity at 3 µM (CYP2D6 [1]) was 95% and the activity at 10 µM (CYP2D6 [1]) was 79%. The activity at 50 µM (CYP2D6 [1]) was 36% and the IC50 (CYP2D6 [1]) was under 50 µM.

Compound CO[C@H]1CC[C@H](NC(=O)c2cc(C3CCOCC3)nc(-c3cncn3C)n2)CC1 [Compound 199, N-((1r,4r)-4-methoxycyclohexyl)-2-(1-methyl-1H-imidazol-5-yl)-6-(tetrahydro-2H-pyran-4-yl)pyrimidine-4-carboxamide] has an IC50 (mouse CD38) of 3.1 nM, an activity at 3 µM (CYP3A4; [3]) of 93% and an activity at 3 µM (CYP3A4; [4]) of 98%. The activity at 10 µM (CYP3A4; [3]) was 92%, the activity at 10 µM (CYP3A4; [4]) was 96% and the activity at 50 µM (CYP3A4; [3]) was 79%. It also gave an activity at 50 µM (CYP3A4; [4]) of 79%, an IC50 (CYP3A4; [5]) of over 50 µM and an IC50 (CYP3A4; [6]) of over 50 µM. The IC50 (human CD38) was 15.2 nM.

In the case of CO[C@H]1CC[C@H](NC(=O)c2nccc(-c3cncn3C)n2)CC1 [Compound 148, N-((1r,4r)-4-methoxycyclohexyl)-4-(1-methyl-1H-imidazol-5-yl)pyrimidine-2-carboxamide], the “CYP2C19 IC50 fold shift” value (CYP2C19; [7]) is reported as “none”, the IC50 (CYP2C19; pre-incubation 0 min) is reported as over 30 µM and the IC50 (CYP2C19; pre-incubation 30 min (NADPH)) is reported as over 30 µM. For the same compound, the IC50 (CYP2C19; pre-incubation 30 min (NO NADPH)) was over 30 µM, the IC50 (CYP2D6 [2]; 0 min pre-incubation, pooled human microsomes, read-out: IC50 CYP2D6 (reversible inhibition)) was 13.7 µM and the “CYP2D6 IC50 fold shift” value (CYP2D6 [2]; [7]) was 1.1. It also gave an IC50 (CYP2D6 [2]; pre-incubation 30 min (NADPH), read-out: CYP2D6 IC50) of 12.3 µM, an IC50 (CYP2D6 [2]; pre-incubation 30 min (NO NADPH), read-out: CYP2D6 IC50) of 9.1 µM and an IC50 (mouse CD38) of 23 nM. It also gave an IC50 (human CD38) of 70 nM.
